The values below come from patent US8362000B2, “Azetidinyl diamides as monoacylglycerol lipase inhibitors” (Janssen Pharmaceutica NV, priority 2009, dated 2013).

One test deals with T1, mutant MGL (Homo sapiens, UniProt Q99685, L169S/L176S).
T1 sequence (Q99685 1-303 L169S/L176S): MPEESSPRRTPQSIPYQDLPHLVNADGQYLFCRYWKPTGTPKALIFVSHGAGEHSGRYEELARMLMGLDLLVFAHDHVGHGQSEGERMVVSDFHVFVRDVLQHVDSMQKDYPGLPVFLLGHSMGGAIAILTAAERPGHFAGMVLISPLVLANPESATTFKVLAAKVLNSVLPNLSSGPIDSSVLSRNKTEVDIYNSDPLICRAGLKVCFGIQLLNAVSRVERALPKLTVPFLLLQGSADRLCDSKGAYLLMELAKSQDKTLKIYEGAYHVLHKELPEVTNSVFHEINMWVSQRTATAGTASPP
Nature of the test: MGL ThermoFluor assay - mutant. In kind it is binding.

Test [1] concerns the target T2, purified wild type MGL (wt-MGLL 6H-11-313) (Homo sapiens, UniProt Q99685).
T2 sequence (Q99685 1-303): T1 sequence (Q99685 1-303 L169S/L176S) with S169L, S176L

Another test deals with T3, MGL (Rattus norvegicus, UniProt Q8R431).
T3 construct: one g rat brain was homogenized using a Polytron homogenizer; from tissue; host or cells: rat brain homogenate
T3 sequence (Q8R431 1-303): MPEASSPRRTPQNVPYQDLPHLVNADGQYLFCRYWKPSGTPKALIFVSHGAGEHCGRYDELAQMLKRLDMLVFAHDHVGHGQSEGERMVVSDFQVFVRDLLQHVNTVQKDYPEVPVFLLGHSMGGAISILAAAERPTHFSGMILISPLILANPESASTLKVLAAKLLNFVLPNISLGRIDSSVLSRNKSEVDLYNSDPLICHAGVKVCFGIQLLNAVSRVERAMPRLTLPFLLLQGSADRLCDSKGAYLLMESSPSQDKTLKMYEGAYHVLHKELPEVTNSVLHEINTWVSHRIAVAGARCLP
Nature of the test: 2-AG accumulation assay in rat brain homogenate. The class given is biochemical. The following applies: rat brain homogenate, 2-AG accumulation as percent of vehicle; for 2-AG accumulation, % of vehicle control at 1 µM: compound 1 μM, read-out: Rat Brain 2AG % VehCntrl (%) @ 1 μM; for 2-AG accumulation, % of vehicle control at 10 µM: compound 10 μM, read-out: Rat Brain 2AG % VehCntrl (%) @ 10 μM.

Setting [2] is: compound concentration measured by qNMR, read-out: MGL mutant ThermoFluor qKd (using qNMR conc.).
The mark [3] stands for this setting: ThermoFluor concentration-response, read-out: MGL mutant ThermoFluor Kd.
The mark [4] stands for this setting: ThermoFluor thermal stability binding assay, read-out: MGL mutant ThermoFluor Kd.
The mark [5] stands for this setting: ThermoFluor, compound concentration measured by qNMR, read-out: MGL mutant ThermoFluor qKd (μM) (using qNMR conc.).
[6] abbreviates: ThermoFluor, compound concentration measured by qNMR, read-out: MGL mutant ThermoFluor qKd (using qNMR conc.).

SMILES strings stand for the structures. Positions count from the first letter of the chain named. Where two headings read alike, the source gives them in different places.

The IC50 is the concentration that inhibits the measured activity by half. Low values mean greater potency, high ones weaker potency. On to `COc1c(C(=O)N2CC(N3CCN(C(=O)c4cscn4)CC3)C2)sc2cc(C(F)(F)F)ccc12` [Cpd 700], for which the Kd on mutant MGL (setting [2]) came out at 0.006 µM. Besides, the IC50 in test [1] was determined as 0.072 µM. Moreover, the 2-AG accumulation, % of vehicle control at 1 µM on MGL stood at 547%.
Regarding `O=C(c1ccc(Oc2cc(C(F)(F)F)ccc2F)nc1)N1CC(N2CCN(C(=O)c3nccs3)CC2)C1` [Cpd 878], the Kd on mutant MGL (setting [3]) was 0.088 µM. Besides, in test [1], the IC50 is < 0.005 µM. At MGL, the 2-AG accumulation, % of vehicle control at 1 µM turned out to be 288%.
On the same counts, the results for `O=C(c1ccc2c(c1)CCN2Cc1cccc(C(F)(F)F)c1)N1CC(N2CCN(C(=O)c3nccs3)CC2)C1` [Cpd 881] are 0.006 µM, < 0.005 µM and 847%.
On the same counts, the results for `O=C(c1ccc(C(F)c2ccc(C(F)(F)F)cc2)cc1)N1CC(N2CCN(C(=O)c3nccs3)CC2)C1` (stereo not shown) [Cpd 982, 1-{1-[(4-{Fluoro[4-(trifluoromethyl)phenyl]methyl}phenyl)carbonyl]azetidin-3-yl}-4-(1,3-thiazol-2-ylcarbonyl)piperazine] are 0.01 µM, < 0.005 µM and 762%.
As to `O=C(c1ccc2c(cnn2-c2ccccc2)c1)N1CC(N2CCN(C(=O)c3cscn3)CC2)C1` [Cpd 1163, 1-Phenyl-5-({3-[4-(1,3-thiazol-4-ylcarbonyl)piperazin-1-yl]azetidin-1-yl}carbonyl)-1H-indazole], at mutant MGL (setting [3]), the Kd worked out at 0.073 µM. Besides, the IC50 in test [1] came to 0.048 µM. For the same molecule, the 2-AG accumulation, % of vehicle control at 1 µM on MGL was found to be 244%.
Regarding `CCC(C)(C)c1ccc(C(=O)N2CC(N3CCN(C(=O)c4nccs4)CC3)C2)cc1` [Cpd 887], the Kd at mutant MGL (setting [3]) stood at 0.009 µM. In test [1], the IC50 was < 0.005 µM. The 2-AG accumulation, % of vehicle control at 1 µM on MGL was 270%.
As to `O=C(c1ccc2c(-c3ccccc3)cccc2c1)N1CC(N2CCN(C(=O)c3nccs3)CC2)C1` [Cpd 338, 1-{1-[(5-Phenylnaphthalen-2-yl)carbonyl]azetidin-3-3yl}-4-(1,3-thiazol-2-ylcarbonyl)piperazine], on mutant MGL (setting [4]), the Kd is 0.0011 µM. Also, the IC50 in test [1] was < 0.005 µM. Moreover, the 2-AG accumulation, % of vehicle control at 10 µM at MGL was determined as 791%.
For the molecule `O=C(c1nccs1)N1CCN(C2CN(C(=O)c3cc4ccn(-c5ccc(F)cc5)c4cc3F)C2)CC1` [Cpd 1349], the Kd on mutant MGL (setting [3]) stood at 0.005 µM; on mutant MGL (setting [2]) it was 0.006 µM. In test [1], the IC50 was < 0.005 µM. Moreover, the 2-AG accumulation, % of vehicle control at 1 µM on MGL came to 846%.
With `Cc1cc(C(=O)N2CC(N3CCN(C(=O)c4nccs4)CC3)C2)sc1-c1ccc(C(F)(F)F)cc1` [Cpd 1352], on mutant MGL (setting [5]), the Kd was determined as 0.008 µM. The IC50 in test [1] is < 0.005 µM. In addition, the 2-AG accumulation, % of vehicle control at 1 µM at MGL came out at 548%.
As to `Cc1cn(-c2ccc(F)c(F)c2)c2ccc(C(=O)N3CCN(C4CN(C(=O)c5nccs5)C4)CC3)cc12` [Cpd 1134, 1-(3,4-Difluorophenyl)-3-methyl-5-({4-[1-(1,3-thiazol-2-ylcarbonyl)azetidin-3-yl]piperazin-1-yl}carbonyl)-1H-indole], the Kd at mutant MGL (setting [6]) came to 0.009 µM. The same molecule displayed a concentration for half-maximal inhibition (IC50) in test [1] of 0.025 µM. The 2-AG accumulation, % of vehicle control at 1 µM at MGL came out at 774%.
With `O=C(c1ccc2c(c1)CCN(c1ccccc1)C2)N1CC(N2CCN(C(=O)c3nccs3)CC2)C1` [Cpd 883], at mutant MGL (setting [4]), the Kd was 0.059 µM. For the same molecule, in test [1], the IC50 is < 0.005 µM. In addition, the 2-AG accumulation, % of vehicle control at 1 µM at MGL came to 767%.
`Cn1nc(-c2ccccc2)c2cc(C(=O)N3CC(N4CCN(C(=O)c5nccs5)CC4)C3)ccc21` [Cpd 1137, 1-Methyl-3-phenyl-5-({3-[4-(1,3-thiazol-2-ylcarbonyl)piperazin-1-yl]azetidin-1-yl}carbonyl)-1H-indazole]: the Kd on mutant MGL (setting [3]) is 0.01 µM. For the same molecule, the midpoint of inhibition in test [1], the IC50, lay at 0.026 µM. For the same molecule, on MGL, the 2-AG accumulation, % of vehicle control at 1 µM turned out to be 582%.
Consider `O=C(c1ccccc1)N1CCN(C2CN(C(=O)c3ccc(Oc4cccc(C(F)(F)F)c4)cc3)C2)CC1` [Cpd 419, 1-(Phenylcarbonyl)-4-[1-({4-[3-(trifluoromethyl)phenoxy]phenyl}carbonyl)azetidin-3-yl]piperazine], for which, at mutant MGL (setting [3]), the Kd was determined as 0.123 µM. For the same molecule, the midpoint of inhibition in test [1], the IC50, lay at 0.17 µM. Also, at MGL, the 2-AG accumulation, % of vehicle control at 1 µM came to 109%.
Consider `Cc1cn(-c2ccc(F)cc2)c2ccc(C(=O)N3CCN(C4CN(C(=O)c5nccs5)C4)CC3)cc12` [Cpd 1089, 1-(4-Fluorophenyl)-3-methyl-5-({4-[1-(1,3-thiazol-2-ylcarbonyl)azetidin-3-yl]piperazin-1-yl}carbonyl)-1H-indole], for which the results for the Kd at mutant MGL (setting [3]) and on mutant MGL (setting [6]) were 0.009 µM and 0.006 µM, respectively. In addition, the IC50 in test [1] was 0.01 µM. The 2-AG accumulation, % of vehicle control at 1 µM at MGL is 545%.
Turning to `O=C(c1ccc(Oc2cccc(Cl)c2)c(F)c1)N1CC(N2CCN(C(=O)c3nccs3)CC2)C1` [Cpd 875], on mutant MGL (setting [3]), the Kd amounted to 0.01 µM. For the same molecule, in test [1], the half-maximal inhibitory concentration (IC50) was < 0.005 µM. Further, the 2-AG accumulation, % of vehicle control at 0.1 µM on MGL (compound 0.1 μM, read-out: Rat Brain 2AG % VehCntrl (%) @ 0.1 μM) was 232%. Further, the 2-AG accumulation, % of vehicle control at 1 µM on MGL was determined as 499%.
Take `O=C(c1csc(-c2cc(Cl)cc(Cl)c2)n1)N1CC(N2CCN(C(=O)c3nccs3)CC2)C1` [Cpd 158, 1-(1-{[2-(3,5-Dichlorophenyl)-1,3-thiazol-4-yl]carbonyl}azetidin-3-yl)-4-(1,3-thiazol-2-ylcarbonyl)piperazine]: the Kd at mutant MGL (setting [3]) amounted to 0.476 µM. In test [1], this molecule showed a half-inhibitory concentration (IC50) of 0.657 µM. On MGL, the 2-AG accumulation, % of vehicle control at 1 µM amounted to 126% and the 2-AG accumulation, % of vehicle control at 10 µM was found to be 213%.
For `Cc1c(Cc2ccc(C(F)(F)F)cc2)cccc1C(=O)N1CC(N2CCN(C(=O)c3cscn3)CC2)C1` [Cpd 1009], the Kd on mutant MGL (setting [3]) was found to be 0.589 µM. Further, in test [1], the IC50 was 0.065 µM. For the same molecule, the 2-AG accumulation, % of vehicle control at 1 µM at MGL was 706%.
With `Cc1cn(-c2cccc(F)c2)c2ccc(C(=O)N3CC(N4CCN(C(=O)c5nccs5)CC4)C3)cc12` [Cpd 1368], on mutant MGL (setting [5]), the Kd came out at 0.001 µM. Besides, the IC50 in test [1] is < 0.005 µM. Further, the 2-AG accumulation, % of vehicle control at 1 µM on MGL stood at 859%.
Turning to `O=C(c1ccc(-c2ccc(C(F)(F)F)s2)cc1)N1CCN(C2CN(C(=O)c3ccc[nH]3)C2)CC1` [Cpd 1162], at mutant MGL (setting [2]), the Kd worked out at 0.014 µM. Moreover, half-maximal inhibition in test [1] (IC50) was put at 0.047 µM. For the same molecule, at MGL, the 2-AG accumulation, % of vehicle control at 1 µM was determined as 237%.
`O=C(c1ccc2c(ccn2-c2ccc(OC(F)(F)F)cc2)c1)N1CC(N2CCN(C(=O)c3nccs3)CC2)C1` [Cpd 1369]: the Kd at mutant MGL (setting [5]) worked out at 0.002 µM. Besides, the half-maximal inhibitory concentration (IC50) in test [1] is < 0.005 µM. Moreover, the 2-AG accumulation, % of vehicle control at 1 µM at MGL was determined as 874%.
Turning to `Cc1cn(-c2ccccc2)c2ccc(C(=O)N3CC(N4CCN(C(=O)c5cscn5)CC4)C3)cc12` [Cpd 1152], the Kd on mutant MGL (setting [4]) came out at 0.007 µM. This molecule also yielded an IC50 in test [1] of 0.038 µM. For the same molecule, the 2-AG accumulation, % of vehicle control at 1 µM on MGL was determined as 394%.
On to `O=C(c1ccc2c(c1)C1C=CCC1C(c1cccc(Cl)c1)N2)N1CC(N2CCN(C(=O)c3nccs3)CC2)C1` (stereo not shown) [Cpd 667], for which, at mutant MGL (setting [3]), the Kd came to 0.013 µM. The molecule further registered an IC50 in test [1] of 0.014 µM. Also, on MGL, the 2-AG accumulation, % of vehicle control at 1 µM amounted to 856%.
On to `Cc1ccc(-n2ccc3cc(C(=O)N4CC(N5CCN(C(=O)c6ccc[nH]6)CC5)C4)ccc32)cn1` [Cpd 1181, 1-(6-Methylpyridin-3-yl)-5-({3-[4-(1H-pyrrol-2-ylcarbonyl)piperazin-1-yl]azetidin-1-yl}carbonyl)-1H-indole], for which the Kd at mutant MGL (setting [6]) was found to be 0.278 µM. 0.077 µM corresponded to half-maximal inhibition in test [1] (IC50). Besides, the 2-AG accumulation, % of vehicle control at 1 µM on MGL is 288%.
`Cn1nc(-c2cccc(F)c2)c2cc(C(=O)N3CC(N4CCN(C(=O)c5nccs5)CC4)C3)ccc21` [Cpd 1170]: the Kd at mutant MGL (setting [3]) stood at 0.014 µM. Further, the IC50 in test [1] came out at 0.059 µM. In addition, the 2-AG accumulation, % of vehicle control at 1 µM on MGL stood at 258%.
The like results for `O=C(c1ccc(COc2cccc(Cl)c2)cc1)N1CC(N2CCN(C(=O)c3cscn3)CC2)C1` [Cpd 959] were, in that order, 0.044 µM, < 0.005 µM and 861%.
`CCCn1ccc2cc(C(=O)N3CC(N4CCN(C(=O)c5nccs5)CC4)C3)ccc21` [Cpd 687]: at mutant MGL (setting [3]), the Kd was found to be 0.004 µM. This molecule registered a concentration for half-maximal inhibition (IC50) in test [1] of 0.044 µM. Further, at MGL, the 2-AG accumulation, % of vehicle control at 1 µM is 698%.
